According to paper PMC7409197, “Adenosine Receptors as Neuroinflammation Modulators: Role of A1 Agonists and A2A Antagonists” (Cells, 2020):

Legend:
Format in all cases: cell-based, rat
mixed glial cells [1] = assay: MTS cell viability in cytokine cocktail (CK) inflammatory model, mixed glial cells
Protocol: (§1) Newborn male Wistar rats were sacrificed and mixed glial cell cultures were obtained from the cerebral cortices. Cerebral cortices were dissected, and meninges were cleared away. Tissues were treated with trypsin solution (trypsin 0.05% (w/v) trypsin-EDTA 5 mM) for 25 min at 37 °C. The tissue was fully disaggregated by pipetting and the dissociated cells were seeded in a 6-well plate with Dulbecco’s modified Eagle’s/High glucose medium enriched with 100 U/mL penicillin, 100 µg/mL streptomycin and 10% FBS. Fresh medium was changed the next day and then every 3 days decreasing the quantity of FBS. All experiments were carried out after 7–9 days of plating.
(§2) Mixed glial cell cultures were divided into 2 groups, one to study A1AR partial agonists and another for A2AAR antagonists. Cells from the first group were pre-treated with 2 µL at three different concentrations of C1 for 15, 30 or 60 min and then with further addition of a pro-inflammatory cocktail of cytokines (TNF-α, 20 ng/mL; IL-1β, 20 ng/mL; IFN-γ 20 ng/mL) for 48 h. […] To study C2 cells were pre-treated with the same CK cocktail for 48 h and then with 2 µL of C2 at three different concentrations for 15, 30, or 60 min (Scheme 1). ZM241385, a well known A2AAR antagonist, was used as reference compound. Furthermore, ligands and CK were tested alone for 15, 30 or 60 min and 48 h respectively.
(§3) 1.7 × 10^4 mixed glial cells were cultured in 98 μL of the specific medium in a 96 well plate overnight. The next day 2 μL of ligand or CK cocktail were added to the well. After all treatments, 20 µL of CellTiter 96® AQueous One Solution Reagent was added in a final volume of 100 µL. Absorbance was read at 490 nm using the plate reader GENiosPro. Cell viability was calculated as percentage using the following formula: Cell viability =OD mean of treated cells/OD mean of control cells × 100

mixed glial cells [2] = assay: CellTiter 96 AQueous One (MTS) cell viability, ligands alone, mixed glial cells
Protocol: as §1, §2, §3

mixed glial cells [3] = assay: Griess assay (nitrite production) in mixed glial cells; conditions: 10 nM, 30 min, after CK cocktail
Protocol: To test the antioxidant capacity of these new molecules Griess assay was performed. The Griess Reagent System is based in the conversion of sulphanilamide into an azo-compound with the presence of N-1-napthylenediamide dihydrochloride (NED) under acidic condition. 1.7 × 10^4 mixed glial cells were cultured in 98 μL of the specific medium in a 96 well plate overnight. After 24 h the media from each well of the cell culture was transferred into a 96 well plate and then 50 µL of the sulphanilamide solution was added to each well. After 5–10 min of incubation at room temperature (rt), 50 µL of the NED Solution were dispensed to all wells and they were incubated at rt for other 5–10 min. Absorbance was measured within 30 min in the plate reader GENiosPro with a filter between 520 nm and 550 nm. This experiment was performed 3–5 replicates. Concentration of NO¬¬¬¬2¯ in each sample was determined by comparison to a Nitrite standard reference curve.

Structure (SMILES)	prevention of CK aggression (cell viability, words) (mixed glial cells [1]; pre-treatment before CK cocktail 48 h, C1 2-30 µM, CCPA 10 nM 30 min)	cell viability vs. control (mixed glial cells [2]; ligand alone, 5, 10, 60 nM, 15, 30, 60 min)	cell viability vs. control (mixed glial cells [1]; CK cocktail 20 ng/mL 48 h, then ligand 10 nM for 30 min) [%]	nitrite levels in presence of CK cocktail (mixed glial cells [3])	cell viability vs. control (mixed glial cells [2]; ligand alone, 10 nM, time not stated at the place (highest effect at 30 min)) [%]
OC[C@H]1O[C@@H](n2cnc3c(NC4CCCC4)nc(Cl)nc32)[C@H](O)[C@@H]1O [CCPA, 2-chloro-N^6-cyclopentyladenosine, reference compound]	prevent the CK aggression	did not change cell viability significantly			
Nc1nc(NCCc2ccc(O)cc2)nc2nc(-c3ccco3)nn12 [ZM241385, reference compound]			136 ± 1.7	able to decrease NO¬¬¬¬2¯ levels induced by CK more than the well know ZM241385	135 ± 3.5
